Values quoted from earlier work in US20210008004A1, “CANNABINOID FORMULATIONS AND METHODS INCLUDING THE ANTIOXIDANT C60” (priority 2017, published 2021).

Legend:
CB1 receptor = CB1 receptor (Homo sapiens, UniProt P21554)
peripheral CB2-receptors = peripheral CB2-receptors (Homo sapiens, UniProt P34972); details: in vivo
Sequence of peripheral CB2-receptors (P34972 whole entry): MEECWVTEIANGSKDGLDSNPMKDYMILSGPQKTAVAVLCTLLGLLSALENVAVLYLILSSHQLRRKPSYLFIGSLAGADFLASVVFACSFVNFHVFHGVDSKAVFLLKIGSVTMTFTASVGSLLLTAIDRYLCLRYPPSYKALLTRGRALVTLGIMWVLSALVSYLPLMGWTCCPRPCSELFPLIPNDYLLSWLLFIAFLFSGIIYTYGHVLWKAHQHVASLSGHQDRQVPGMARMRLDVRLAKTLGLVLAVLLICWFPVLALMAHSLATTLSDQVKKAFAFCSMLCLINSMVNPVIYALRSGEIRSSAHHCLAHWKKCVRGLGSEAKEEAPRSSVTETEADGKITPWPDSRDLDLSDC

Sequence of CB1 receptor (P21554 whole entry): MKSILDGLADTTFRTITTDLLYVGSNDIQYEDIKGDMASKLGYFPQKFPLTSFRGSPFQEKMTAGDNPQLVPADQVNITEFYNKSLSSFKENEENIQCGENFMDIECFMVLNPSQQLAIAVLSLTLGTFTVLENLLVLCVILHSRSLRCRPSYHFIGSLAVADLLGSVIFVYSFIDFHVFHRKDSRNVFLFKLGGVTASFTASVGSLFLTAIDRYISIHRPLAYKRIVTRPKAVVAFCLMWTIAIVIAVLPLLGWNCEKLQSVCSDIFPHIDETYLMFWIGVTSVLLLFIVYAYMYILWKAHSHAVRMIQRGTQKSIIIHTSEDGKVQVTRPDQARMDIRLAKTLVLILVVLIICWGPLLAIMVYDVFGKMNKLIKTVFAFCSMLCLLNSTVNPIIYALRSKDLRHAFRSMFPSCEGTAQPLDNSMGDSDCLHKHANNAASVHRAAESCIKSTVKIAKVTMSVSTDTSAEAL

## c12c3c4c5c1c1c6c7c2c2c8c3c3c9c4c4c%10c5c5c1c1c6c6c%11c7c2c2c7c8c3c3c8c9c4c4c9c%10c5c5c1c1c6c6c%11c2c2c7c3c3c8c4c4c9c5c1c1c6c2c3c41 [Example C60, buckminsterfullerene]
other
  solubility in lipids or aqueous solutions: not typically soluble
rodent; even high doses
  toxicity: does not exhibit toxicity
rodent; some rodents
  rodent life span: doubled

## COc1ccc(/C=C/c2cc(OC)cc(=O)o2)cc1 [Yangonin]
CB1 receptor
  affinity to the CB1 receptor: significant affinity

## C=C1CC/C=C(\C)CC[C@@H]2[C@@H]1CC2(C)C [beta-caryophyllene]
Peripheral CB2-receptors
  agonist activity at peripheral CB2-receptors: selective agonist
